Measured values published in paper PMC10035370, “Targeting Tumor Angiogenesis with the Selective VEGFR-3 Inhibitor EVT801 in Combination with Cancer Immunotherapy” (Cancer Research Communications, 2022).

Legend:
4T1 tumors [1] = experiment: 4T1 mammary carcinoma mouse model, with anti-PD-1; format: in vivo, mice
Procedure: The 4T1 mammary carcinoma mouse models were used as reported previously ([26]). Briefly, 1 × 10^5 4T1 cells were implanted into mammary fat pads of BALB/c mice. […] Tumors were measured two to three times weekly with calipers. The tumor volume (V) was calculated using the formula V = 0.52 × a^2 × b (a: smallest tumor diameter; b: largest tumor diameter). The tumors, lungs, and axillary lymph nodes were removed at day 21 for treatment with anti-PD-1, and day 28 for treatment with anti-CTLA-4. The tumors and the lungs were embedded in paraffin for histology studies. […] The metastatic scoring was determined as follows: (0) no metastasis; ([1]) 1 to 20 metastases < 50 μm; ([2]) between 21 and 50 metastases < 50 μm; ([3]) 1 or more metastases > […]; ([4]) 1 or more metastases > […].

tubule formation = experiment: Mouse aortic ring assay stimulated by a 4T1 tumor fragment; format: cell-based; conditions: 300 nM, day 8
Procedure: Neo-angiogenesis was studied in vitro by culturing rings of mouse thoracic aorta in 3-dimensional collagen gels, as previously described (2), but the mouse serum was replaced by a piece of 4T1 tumor. Briefly, 1 mm-long aortic ring-shaped fragments of 9-week old C57Bl/6J mice, and 1 mm^3 4T1 tumor pieces resected 21 days after orthotopic injection in mammary fat pad of BALB/c mice were embedded in a rat tail interstitial collagen gel (1.5 mg/mL). It was prepared by mixing 7.5 volumes of 2 mg/mL collagen (Collagen R, Serva), 1 volume of 10 x minimum essential medium (MEM, Life Technologies Ltd.), 1.5 volumes of NaHCO3 (15.6 mg/mL), and 0.1 volume 1 M NaOH to adjust the pH to 7.4. The collagen gels containing the aortic rings were polymerized in cylindrical agarose wells, and kept in triplicate at 37 °C in 60 mm diameter Petri dishes (bacteriological polystyrene; Falcon, Becton Dickinson). Each dish contained 6 mL of MCDB131 (Life Technologies Ltd.) supplemented with 25 mM NaHCO3, 1 % glutamine, 100 U/mL penicillin, and 100 µg/mL streptomycin. The cultures were kept at 37 °C in a humidified environment for 8 days and examined every other day with a Nikon microscope at appropriate magnification. […] Quantification of pseudo-tubules was performed at day 8 using an automated computer-assisted image analysis system (Morpho Expert V2.50, Explora Nova, La Rochelle, France). […]

4T1 tumors [2] = experiment: 4T1 mammary carcinoma mouse model, with anti-CTLA-4; format: in vivo, mice
Procedure: The 4T1 mammary carcinoma mouse models were used as reported previously ([26]). Briefly, 1 × 10^5 4T1 cells were implanted into mammary fat pads of BALB/c mice. […] Tumors were measured two to three times weekly with calipers. The tumor volume (V) was calculated using the formula V = 0.52 × a^2 × b (a: smallest tumor diameter; b: largest tumor diameter). The tumors, lungs, and axillary lymph nodes were removed at day 21 for treatment with anti-PD-1, and day 28 for treatment with anti-CTLA-4. The tumors and the lungs were embedded in paraffin for histology studies. Intraperitoneal injection (10 mg/kg of antibody diluted at 1 mg/mL) was performed at day 6, day 11, and day 16 for treatment with anti-PD-1, and at day 6, day 11, day 16, and day 21 for treatment with anti-CTL-4 by using a 26G needle fitted to a plastic syringe in the right lower quarter of mice abdomen. The metastatic scoring was determined as follows: (0) no metastasis; ([1]) 1 to 20 metastases < 50 μm; ([2]) between 21 and 50 metastases < 50 μm; ([3]) 1 or more metastases > […]; ([4]) 1 or more metastases > […].
Whole blood samples were treated twice with ACK lysing buffer (Thermo Fisher Scientific, A1049201) to lyse red blood cells. Cell suspension were incubated for 15 minutes on ice in blocking buffer (FACS buffer: PBS 1 X, 1% FBS, 5 mmol/L Ethylene Diamine Tetra acetic Acid (EDTA) containing 3% rat serum, 3% mouse serum, 1:660 FC blocking antibody). Cell suspension were stained with an antibody mix either for myeloid-derived suppressor cell (MDSC) staining [anti-CD45 PE-Vio770 (Miltenyi Biotec, 130-110-799), anti-CD11b APC (eBioscience, 17-0112-82), anti-Ly6C AF700 (BD, 561237), anti-Ly6G BV421 (BD, 562737), anti-F4/80 BV510 (BD, 743280), anti-IA/I-E (MHCII), PercpCy5.5 (BD, 562363), anti-CD124 PE (BioLegend, 144804) or anti-rat IgG2bPE (Ozyme, BLE400608) isotype control, and the green fluorescent reactive dye (Thermo Fisher Scientific, L34960)], or for T-cell staining [anti-CD45 PE-Vio770 (Miltenyi Biotec, 130-110-799), anti-Thy1 APC-Cy7 (BioLegend, 105328), anti-CD4 PercpVio-700 (Miltenyi Biotec, 130-109-497), anti-CD8 BV510 (BD, 563068), anti-CD69 BV421 (BD 562920) or anti-rat IgG1a-BV421 (BD, 562919), and the green fluorescent reactive dye (Thermo Fisher Scientific, L34960)]. After incubation for 30 minutes at 4°C in the dark, cells were washed and suspended in FACS buffer. A total of 50 μL of CountBright Absolute counting beads (Thermo Fisher Scientific, C36950) were added just before cell acquisition on a FACS Fortessa X20 (Becton Dickinson). Analysis was performed with the FlowJo software. For calculation of cell concentration, the following formula was used: Concentration of cells/μL = (number of cell events/number of bead events) × (assigned bead count of the lot/volume of analyzed sample). Monocytic MDSCs (M-MDSC) were characterized as MHC-II^neg/CD11b^+/Ly6C^+/Ly6G^neg, whereas polymorphonuclear MDSCs (PMN-MDSC) were characterized as MHC-II^neg/CD11b^+/Ly6C^neg/Ly6G^+, as described previously ([31]). Among those populations, CD124^+ cells were considered as the activated subpopulations ([32]).
Blood was centrifuged at 8,000 rpm, for 5 minutes, at 4°C and the plasma was collected by harvesting the supernatant and stored at −80°C. Plasma samples were thawed at 4°C extemporaneously for MesoScale Discovery (MSD) analysis on a U-PLEX-4 Assay coated plate (U-PLEX Mouse KC, U-PLEX Mouse MIP-1α/CCL3, U-PLEX Mouse MIP-1β/CCL4, U-PLEX Mouse Rantes/CCL5 K15069L-1, Meso Scale Discovery). Analysis was performed following manufacturer's instructions.

[3] = endpoint, 30 mg/kg twice per day

CCn1c(N)c(-c2ncc[nH]2)c(=O)c2ccc(C#C[C@@](C)(O)COC)nc21 [EVT801]
intratumor infiltrated CD8+ cells (4T1 tumors [1]; endpoint, not statistically significant): globally doubled
T/C ratio, tumor volume (4T1 tumors [1]; orthotopic, 2 weeks, EVT801 30 mg/kg twice per day and/or anti-PD-1 twice per week): 43%
tubule formation (tubule length) (tubule formation): prevents tumor-induced tubule formation almost completely
reduction in circulation of each activated (CD124+) MDSC subpopulation (PMN-MDSCs, M-MDSCs) in the blood (4T1 tumors [2]; 14 hours after the last dosing): 2 fold
increase in number of circulating CD8+ T cells (4T1 tumors [2]; endpoint): 30%
change in circulating CCL4 levels (4T1 tumors [2]; [3]): −50%
change in circulating CCL5 levels (4T1 tumors [2]; [3]): −30%
circulating CCL3 levels (4T1 tumors [2]; [3]): unchanged
T/C ratio, tumor growth (4T1 tumors [2]; orthotopic, EVT801 30 mg/kg twice per day, anti-CTLA-4 twice per week, or both): 53%
